We go through 3 compounds from patent US5563140A, “Use of 1-(aminoalkyl)-3-(benzyl)-quinoxaline-2-one derivatives for the preparation of neuroprotective compositions” (Phafag Aktiengesellschaft, priority 1991, dated 1996).

In one data set the test system is glutamate receptors. Put plainly: Microiontophoresis at inner hair cell synapse of guinea pig cochlea: glutamate-induced spike activity. The data set is classed as in vivo, guinea pigs. On the procedure:
The effectiveness of the 1-(aminoalkyl)-3-(benzyl)-quinoxaline-2-one derivatives as potential glutamate receptor antagonists was studied in the light of the neurotransmission between the inner hair cells (IHC) and the peripheral dendrites of the afferent neurons in the mammalian cochlea.
(§1) Experiments were performed on adult pigmented guinea pigs (300-700 g) of both sexes, anaesthetized with a combination of Rompun (Bayer, Leverkusen, Germany) and Innovar-Vet (Pitman-Moore, Mundelin, Ill., U.S.A.). Supplementary low doses of pentobarbital (Nembutal, Abbott, Chicago, U.S.A.) were given periodically throughout the experiments. Rectal temperature was maintained within physiological limits. After tracheotomy for artificial respiration, the auditory bulla was approached ventrolaterally and the cochlea was exposed. A small opening was drilled into the cochlea bone over the pigmented stria vascularis and the ligamentum spiale of the third turn.
(§2) The occurrence of phasic activity was used to identify the location precisely, since such activity occurs in the immediate vicinity of the initial postsynaptic structures.
Recordings of extracellular action potentials were obtained using a 2M NaCl-filled barrel of the 5-barrel glass micropipette. […]

For data set [1], the system named is membrane response to acetylcholine. Put plainly: Microiontophoresis at inner hair cell synapse of guinea pig cochlea: acetylcholine-induced firing (selectivity). The data set is classed as in vivo, guinea pigs. The conditions noted are these: acetylcholine 60 nA; Caroverine 30 nA, FIG. 3. On the procedure: as §1, §2
Recordings of extracellular action potentials were obtained using a 2M NaCl-filled barrel of the 5-barrel glass micropipette. […] Three other channels of the micropipette contained the solutions to be ejected microiontophoretically with the appropriate anionic and cationic currents: L-glutamic acid (0.5M, pH 3.5, adjusted with HCl); Caroverine-HCl (1-diethylaminoethyl-3-(p-methoxybenzyl)-1,2-dihydro-quinoxaline-2-one, 0.05M, natural pH=6.0). […]

For a further data set, the system named is tinnitus. Put plainly: Pilot clinical study in patients suffering from tinnitus. The format is in vivo. The conditions noted are these: 70-160 mg. On the procedure: The neuroprotective effect of Caroverine was tested in a clinical study with patients who suffered from tinnitus. The etiology of tinnitus can be very different in different patients. One of the most frequent tinnitus type is, however, the cochlear tinnitus. If a functional disturbance between the IHC and the peripheral dendrites of the […] neurons is deemed to be the initiating, etiological factor, then this is called a "cochlear synaptic tinnitus". A neuroprotective pharmaceutical like Caroverine should therefore have a positive effect on the cochlear synaptic tinnitus.
In a pilot study Caroverine was applied to 72 patients suffering from tinnitus. Caroverine was applied intravenously (160 mg/100 ml physiological NaCl-solution). The real dosage depended on the tinnitus reduction perceived by the individual patient and varied between 70 and 160 mg.
The effectiveness of Caroverine was measured by a subjective rating and tinnitus-matching before and after the infusion of the drug.

In the next data set the test system is central nervous system. Put plainly: Double-blind, placebo-controlled clinical study, EEG-mapping. The data set is classed as in vivo, persons. Particulars: 40 mg or 80 mg, orally or intravenously. On the procedure:
In a double-blind, placebo-controlled clinical study on a group of 15 persons, the cerebral effect of Caroverine was tested by means of electro-encephalogram (EEG)-mapping. The 15 caucasian probands were 7 females and 8 males between 20 and 35 years old (average 27 years). The weight ranged between 53 and 84 kg (average weight: 69 kg) and the height varied between 162 to 186 cm (average height: 175 cm).
Doses of 40 mg or 80 mg of Caroverine or placebo were administered either orally or intravenously for random sampling to the persons in weekly intervals. EEG-tracings as well as recordings of pulse, blood pressure and side effects were carried out 0, 1, 2, 4, 6 and 8 hours after medication.

The nature of data set [2]: Side-effects on application, also in high doses. The data set is classed as in vivo. The conditions noted are these: Caroverine and its salts. From the text:
Thus, it is experimentally established that 1-(aminoalkyl)-3-(benzyl)-quinoxaline-2-one derivatives are a potent, reversible and selective class of new glutamate receptor antagonists on the excitatory […] synapses of the cochlear inner hair cells.

Turning to `N[C@@H](CCC(=O)O)C(=O)O` [Glutamate, L-glutamic acid], in the data set on glutamate receptors (agonist alone, n=29 out of 31 fibers), the “effect on firing rate of fibers in the synaptic region of IHC” value is given as “enhances the firing rate”.

Consider `CCN(CC)CCn1c(=O)c(Cc2ccc(OC)cc2)nc2ccccc21` [Caroverine], for which the “effect on acetylcholine-induced firing rate” value in data set [1] is recorded as “no effect”. Besides, the “patients noting a tinnitus reduction of at least 50% in absolute value” with tinnitus (immediately after intravenous infusion, 72 patients) is reported as 66.7%. The results for the side-effects entry (in the data set with tinnitus (intravenous infusion); in data set [2]) were “No sincere side-effects” and “no critical side-effects”, respectively. Also, the “time of maximum effect after medication” value in the data set with central nervous system was “around 1 hour”.

In the case of `CCN(CC)CCn1c(=O)c(Cc2ccc(O)cc2)nc2ccccc21` [1-diethylaminoethyl-3-(p-hydroxy)-1,2-dihydroquinoxaline-2-one], the “effectiveness as glutamate receptor antagonist” value with glutamate receptors (cochlear inner hair cell synapses) is given as “effective”.
